This is an account of results in patent publication US20240269170A1, “Treatment of Inflammatory Conditions or Diseases” (Queen Mary University of London, priority 2021, published 2024).

Structures are written as SMILES.

This assay relates to K/B×N serum induced arthritis in C57BL/6 mice. Description: Sustained K/B×N serum induced arthritis, transfer of monocytes from arthritic mice incubated with MCTR3. As to conditions: monocytes incubated with 10 μM RG108 for 15 min before 1 nM MCTR3. The assay is classed as in vivo, mouse. The procedure:
(C-D) K/B×N serum (100 μL, i.p.) was administered to C57BL/6 mice on day 0, 2 and 9 to induce and prolong inflammatory arthritis and, on day 12, mice were treated i.v. with 2×10^6 monocytes isolated from arthritic mice and incubated with either vehicle (PBS+0.1% EtOH) or 1 nM MCTR3 for 90 min at 37° C. Disease course was monitored daily by assessing C) clinical scores and D) oedema. Results are mean±SEM. and expressed as percent change from day of treatment. n=9 per group from two distinct experiments. (E) On day 22 hind paws were harvested joints were fixed, sectioned, stained using H&E stain and leukocyte infiltration evaluated. Top and centre panels present representative images from each experimental group; bottom panel Quantitation of the scores in each of the group. Results are mean±SEM. n=8 mice per group. Statistical differences were evaluated using Mann-Whitney U test. IFP=intrapatellar fat, M=meniscus, TB=Tibia, PF=Pannus formation, arrows denote leukocyte infiltration. (F-G) Paws were harvested 10 days after treatment and lipid mediator profiles were determined using LC-MS/MS-based lipid mediator profiling and evaluated using PLS-DA. (F) scores plot with highlighted regions denoting the clusters representing cells from each group (G) VIP scores for top 15 mediators. Each dot in the score plot represents a separate mouse.
FIG. 4: Regulation of joint reparative pathways in mice receiving MCTR3-trained monocytes. K/B×N serum (100 μL, i.p.) was administered to C57BL/6 mice on day 0, 2 and 9 to induce and prolong inflammatory arthritis and, on day 12, mice were treated i.v. with 2×10^6 monocytes isolated from arthritic mice and incubated with either vehicle (PBS+0.1% EtOH) or 1 nM MCTR3 for 90 min. (A-C) On day 22 hind paws were harvested, fixed, and stained to evaluate A) proteoglycan content using Safranin-O staining; B) Col 2 and C) Col X expression was evaluated using immunofluorescence. Left panels present representative images from each experimental group, right panels provide a quantitative evaluation of the staining. Results are expressed as percent change vs Monocyte group. n=7-8 mice per group. Statistical differences were evaluated using Wilcoxon signed rank test. (D-I) Hind paws were also collected on day 22 to evaluate the expression of the indicated genes was evaluated using quantitative realtime PCR. Results are from n=5 mice per group. Statistical differences were evaluated using Mann Whitney-U test.
FIG. 5: MCTR3 reprograms the arthritic monocyte-derive macrophage transcriptome. A-B) Arthritis was induced and prolonged in C57BL/6 mice by administering 100 μL K/B×N serum i.p. on day 0, 2 and 9. Mice were treated on day 12 i.v. with 2×10^6 monocytes isolated from arthritic mice and incubated either with vehicle (PBS+0.1% DMSO) or 10 μM RG108, a DNMT inhibitor, for 15 min and then with a vehicle (PBS+0.1% EtOH) or 1 nM MCTR3 for 90 min (37° C.). Disease course was monitored daily by assessing A) clinical scores and B) oedema. Results are mean±SEM and expressed as percent change from day of treatment. n=10 mice per group. Statistical differences were evaluated using Two-way ANOVA. (C-E) K/B×N serum (100 μL, i.p.) was administered to mice on days 0, 2 and 9 to induce and prolong inflammatory arthritis. On day 12, mice were treated i.v. with 2×10^6 monocytes isolated from arthritic mice that were previously incubated with either vehicle (PBS+0.1% EtOH) or 1 nM MCTR3 for 90 min. Cells were isolated from paw joints on day 22, sorted for CD45^+ cells and single cell RNA sequencing was performed. […] Results are from n=4 mice per group. (F-G) Monocytes were isolated from human healthy volunteers, these cells were then incubated with GM-CSF (7 days, 37° C.) then with either Vehicle or MCTR3 (1 nM, 37° C.). Cells were lysed and the phosphoproteome determined using mass spectrometry. […]

For the compound `O=C(O)C(Cc1c[nH]c2ccccc12)N1C(=O)c2ccccc2C1=O` (centres unmarked) [RG108], the “protective actions of MCTR3 (ability of reprogrammed monocytes to regulate joint inflammation)” value is given as “abolished”. Further, the “ability of MCTR3 to upregulate Arg-1 in PKH67+ CD64+ cells in vivo” value (day 22) is given as “reversed”.
